In patent US20160186067A1, “METHODS AND SYSTEMS FOR […]” (SHELL OIL COMPANY, priority 2014, published 2016):

Test: Partitioning of reaction intermediates and solvents between upper toluene-rich and lower aqueous phases (toluene extraction)
Settings: for Kow UL/LL (partition coefficients for toluene extraction): upper toluene-rich layer / lower aqueous-rich layer, toluene added to reactor product of wood digestion, stirred at 150° C. for 2 hours, then cooled and decanted; for Phase preference in toluene extraction: upper organic vs lower aqueous phase, Example 2
Experimental: The injector temperature was set at 250° C., and the detector temperature was set at 300° C. A range of alkanes, ketone and aldehyde monooxygenates as well as residual glycol intermediates including ethylene glycol (EG), 1,2-propylene glycol (PG) and glycerol were observed, along with phenolic components from the initial charge of solvent, and those formed in reaction.
Reaction cycles entailed 1 hour at 160° C., followed by 1 hour at 190° C., followed by 3 hours at 240° C. Six cycles of wood addition were effected, followed by heating overnight at 270° C. under 52 bar of H2 to complete the conversion of intermediates.
Stirring was then stopped, and the reactor was allowed to cool. […] Catalyst was left on the reactor bottom.

SMILES	Kow UL/LL (partition coefficients for toluene extraction)	Phase preference in toluene extraction
OCCO [EG, ethylene glycol]	0.42	
CCCc1ccc(O)c(OC)c1 [MPP, 2-methoxy-4-propylphenol]	33.59	highly favored the upper organic-rich phase
CC(O)CO (stereo not drawn) [PG, 1,2-propylene glycol]	5.09	
Cc1cccc(C)c1O [xylenol, 2,6-xylenol]	51.79	highly favored the upper organic-rich phase
